Measured values published in patent US6753337B2, “Alkynyl containing hydroxamic acid compounds as matrix metalloproteinase/tace inhibitors” (Wyeth Holdings Corporation, priority 1999, dated 2004).
Read-outs that look alike come from different tables or passages of the source.

How the values were obtained:
MMP-13 = MMP-13 (Homo sapiens, UniProt P45452); assay: MMP-13 inhibition (thiopeptide or fluorescent peptide substrate); assay type: biochemical; settings: read-out: MMP13 IC50
Procedure: The enzyme activity is measured by the rate of the color increase. The thiopeptide substrate is made up fresh as a 20 mM stock in 100% DMSO and the DTNB is dissolved in 100% DMSO as a 100 mM stock and stored in the dark at room temperature. Both the substrate and DTNB are diluted together to 1 mM with substrate buffer (50 mM HEPES pH 7.5, 5 mM CaCl2) before use. The stock of enzyme is diluted with buffer (50 mM HEPES, pH 7.5, 5 mM CaCl2, 0.02% Brij) to the desired final concentration.
(§1) Alternatively, a fluorescent peptide substrate is used. In this test procedure, the peptide substrate contains a fluorescent group and a quenching group. Upon cleavage of the substrate by an MMP, the fluorescence that is generated is quantitated on the fluorescence plate reader. The assay is run in HCBC assay buffer (50 mM HEPES, pH 7.0, 5 mM Ca^+2, 0.02% Brij, 0.5% Cysteine), with human recombinant MMP-1, MMP-9, or MMP-13. The substrate is dissolved in methanol and stored frozen in 1 mM aliquots. For the assay, substrate and enzymes are diluted in HCBC buffer to the desired concentrations. Compounds are added to the 96 well plate containing enzyme and the reaction is started by the addition of substrate.
For either the thiopeptide or fluorescent peptide test procedures, the slope of the line is calculated and represents the reaction rate. […] The mean (x±sem) of the control rate is calculated and compared for statistical significance (p<0.05) with drug-treated rates using Dunnett's multiple comparison test.

MMP-1 = target: T1, MMP-1 (Homo sapiens, UniProt P03956); assay: MMP-1 inhibition (thiopeptide or fluorescent peptide substrate); assay type: biochemical; settings: read-out: MMP1 IC50
T1 sequence (P03956 100-469): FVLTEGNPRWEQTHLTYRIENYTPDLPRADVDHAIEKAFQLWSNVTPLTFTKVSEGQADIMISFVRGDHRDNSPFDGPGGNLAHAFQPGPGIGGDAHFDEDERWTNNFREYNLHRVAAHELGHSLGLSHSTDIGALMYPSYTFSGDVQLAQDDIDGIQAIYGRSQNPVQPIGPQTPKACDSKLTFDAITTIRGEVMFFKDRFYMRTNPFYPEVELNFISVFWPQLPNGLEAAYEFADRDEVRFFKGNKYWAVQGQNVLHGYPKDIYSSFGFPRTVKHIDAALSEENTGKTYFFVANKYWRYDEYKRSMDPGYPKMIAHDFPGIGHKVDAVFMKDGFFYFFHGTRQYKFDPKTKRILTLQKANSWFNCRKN
Procedure: These standard pharmacological test procedures are based on the cleavage of a thiopeptide substrates such as Ac-Pro-Leu-Gly(2-mercapto-4-methyl-pentanoyl)-Leu-Gly-OEt by the matrix metalloproteinases MMP-1, MMP-13 (collagenases) or MMP-9 (gelatinase), which results in the release of a substrate product that reacts colorimetrically with DTNB (5,5′-dithiobis(2-nitro-benzoic acid)). The enzyme activity is measured by the rate of the color increase. The thiopeptide substrate is made up fresh as a 20 mM stock in 100% DMSO and the DTNB is dissolved in 100% DMSO as a 100 mM stock and stored in the dark at room temperature. Both the substrate and DTNB are diluted together to 1 mM with substrate buffer (50 mM HEPES pH 7.5, 5 mM CaCl2) before use. The stock of enzyme is diluted with buffer (50 mM HEPES, pH 7.5, 5 mM CaCl2, 0.02% Brij) to the desired final concentration. The buffer, enzyme, vehicle or inhibitor, and DTNB/substrate are added in this order to a 96 well plate (total reaction volume of 200 μl) and the increase in color is monitored spectrophotometrically for 5 minutes at 405 nm on a plate reader and the increase in color over time is plotted as a linear line.
as §1, with “substrate. The reaction is read (excitation 340 nm, emission 444 nm) for 10 min. and the increase in fluorescence over time is plotted as a linear line.” for “substrate.”
For either the thiopeptide or fluorescent peptide test procedures, the slope of the line is calculated and represents the reaction rate. The linearity of the reaction rate is confirmed (r^2>0.85). The mean (x±sem) of the control rate is calculated and compared for statistical significance (p<0.05) with drug-treated rates using Dunnett's multiple comparison test. Dose-response relationships can be generated using multiple doses of drug and IC50 values with 95% CI are estimated using linear regression.

Compound	IC50 (MMP-13)	IC50 (MMP-1)	IC50 (MMP-1; cells that print nM)
CC#CCOc1ccc(S(=O)(=O)C2(C(=O)NO)CCN(Cc3ccc(Br)cc3)CC2)cc1 [Example 1, 1-(4-Bromo-benzyl)-4-(4-but-2-ynyxoy-benzenesulfonyl)-piperdine-4-carboxylic acid hydroxyamide]	155 nM	3300 nM	
CC#CCOc1ccc(S(=O)(=O)C2(C(=O)NO)CCN(Cc3ccc(OC)cc3)CC2)cc1 [Example 2, 4-(4-But-2-ynyloxy-benzenesulfonyl)-1-(4-methoxy-benzyl)-piperdine-4-carboxylic acid hydroxyamide]	39.6 nM	2570 nM	
CC#CCOc1ccc(S(=O)(=O)C2(C(=O)NO)CCN(Cc3ccc(Cl)cc3)CC2)cc1 [Example 3, 4-(4-But-2-ynyloxy-benzenesulfonyl)-1-(4-chloro-benzyl)-piperdine-4-carboxylic acid hydroxyamide]	90 nM	9000 nM	
CC#CCOc1ccc(S(=O)(=O)C2(C(=O)NO)CCN(Cc3ccccc3)CC2)cc1 [Example 4, 1-Benzyl-4-(4-but-2-ynyloxy-benzenesulfonyl)-piperdine-4-carboxylic acid hydroxyamide]	47.3 nM	2600 nM	
CCC#CCOc1ccc(S(=O)(=O)C2(C(=O)NO)CCN(Cc3ccc(Br)cc3)CC2)cc1 [Example 5, 1-(4-Bromo-benzyl)-4-(4-pent-2-ynyloxy-benzenesulfonyl)-piperdine-4-carboxylic acid hydroxyamide]	180 nM	300 nM	
CC#CCOc1ccc(S(=O)(=O)C2(C(=O)NO)CCN(Cc3ccc(F)cc3)CC2)cc1 [Example 7, 4-(4-But-2-ynyloxy-benzenesulfonyl)-1-(4-fluoro-benzyl)-piperidine-4-carboxylic acid hydroxyamide]	59.4 nM	2500 nM	
CC#CCOc1ccc(S(=O)(=O)C2(C(=O)NO)CCN(Cc3ccc(C#N)cc3)CC2)cc1 [Example 8, 4-(4-But-2-ynyloxy-benzenesulfonyl)-1-(4-cyano-benzyl)-piperidine-4-carboxylic acid hydroxyamide]	72 nM	4700 nM	
CC#CCOc1ccc(S(=O)(=O)C2(C(=O)NO)CCN(Cc3ccc(C)cc3)CC2)cc1 [Example 9, 4-(4-But-2-ynyloxy-benzenesulfonyl)-1-(4-methyl-benzyl)-piperidine-4-carboxylic acid hydroxamide]	35.2 nM	2100 nM	
C#CCOc1ccc(S(=O)(=O)C2(C(=O)NO)CCN(Cc3ccc(Br)cc3)CC2)cc1 [Example 11, 1-(4-Bromo-benzyl)-4-(4-prop-2-ynyloxy-benzenesulfonyl)-piperdine-4-carboxylic acid hydroxyamide]	3.1 nM	143 nM	
O=C(NO)C1(S(=O)(=O)c2ccc(OCC#CCN3CCCCC3)cc2)CCN(Cc2ccc(Br)cc2)CC1 [Example 12, 1-(4-bromo-benzyl)-4-[4-(4-piperidin-1-yl-but-2-ynyloxy)-benzenesulfonyl]-piperidine-4-carboxylic acid hydroxyamide]	1500 nM	15000 nM	
CC#CCOc1ccc(S(=O)(=O)C2(C(=O)NO)CCOCC2)cc1 [Example 20, 4-{[4-(2-butynyloxy)phenyl]sulfonyl}-N-hydroxytetrahydro-2H-pyran-4-carboxamide]	121 nM		2640 nM
CC#CCOc1cccc(S(=O)(=O)C2(C(=O)NO)CCN(Cc3ccccc3)CC2)c1 [Example 21, 1-benzyl-4-{[3-(2-butynyloxy)phenyl]sulfonyl}-N-hydroxy-4-piperdine carboxamide]	858 nM	> 10000 nM	
CC#CCOc1ccc(S(=O)(=O)C2(C(=O)NO)CCN(C(C)C)CC2)cc1 [Example 22, 4-{[4-(2-butynyloxy)phenyl]sulfonyl}-N-hydroxy-1-isopropyl-4-piperidine carboxamide]	1080 nM	> 10000 nM	
CC#CCOc1ccc(S(=O)(=O)C2(C(=O)NO)CCN(Cc3cccnc3)CC2)cc1 [Example 23, 4-{[4-(2-butynyloxy)phenyl]sulfonyl}-N-hydroxy-1-(3-pyridinylmethyl)-4-piperidine carboxamide]	64.4 nM		3210 nM
CC#CCOc1ccc(S(=O)(=O)C2(C(=O)NO)CCCN(CC)C2)cc1 (stereo not shown) [Example 24, 3-{[4-(2-Butynyloxy)phenyl]sulfonyl}-1-ethyl-N-hydroxy-3-piperidinecarboxamide]	463 nM		5670 nM
CC#CCOc1ccc(S(=O)(=O)C2(C(=O)NO)CCCN(Cc3ccc(Cl)cc3)C2)cc1 (stereo not shown) [Example 25, 3-{[4-(2-butynyloxy)phenyl]sulfonyl}-1-(4-chlorobenzyl)-N-hydroxy-3-piperidinecarboxamide]	1180 nM	> 10000 nM	
CC#CCOc1ccc(S(=O)(=O)C2(C(=O)NO)CCN(Cc3ccc(OCCN4CCCCC4)cc3)CC2)cc1 [Example 26, 4-{[4-(2-Butynyloxy)phenyl]sulfonyl}-1-[4-(2-piperidin-1-yl-ethoxy)-benzyl]-piperidine-4-carboxylic acid hydroxyamide]	22.1 nM		1990 nM
CC#CCOc1ccc(S(=O)(=O)C2(C(=O)NO)CCN(C(CC)CC)CC2)cc1 [Example 27, 4-{[4-(2-Butynyloxy)phenyl]sulfonyl}-1-(3-pentanyl)-piperidine-4-carboxylic acid hydroxyamide]	426 nM	> 10000 nM	
C#CCOc1ccc(S(=O)(=O)C2(C(=O)NO)CCN(Cc3ccc(OC)cc3)CC2)cc1 [Example 28, 1-(4-Methoxy-benzyl)-4-(4-prop-2-ynyloxy-benzenesulfonyl)-piperidine-4-carboxylic acid hydroxyamide]	5.3 nM		106 nM
C#CCOc1ccc(S(=O)(=O)C2(C(=O)NO)CCN(Cc3ccc(Cl)cc3)CC2)cc1 [Example 29, 1-(4-Chlorobenzyl)-4-(4-prop-2-ynyloxy-benzenesulfonyl)-piperidine-4-carboxylic acid hydroxyamide]	4.7 nM		91 nM
CC#CCOc1ccc(SCC2(C(=O)NO)CCN(C(=O)OC(C)(C)C)CC2)cc1 [Example 30, tert-butyl-4-({[4-(2-butynyloxy)phenyl]sulfanyl}methyl)-4-[(hydroxyamino)-carbonyl]-1-piperidinecarboxylate]	2910 nM	> 10000 nM	
CC#CCOc1ccc(SCC2(C(=O)NO)CCNCC2)cc1 [Example 31, 4-({[4-(But-2-ynyloxy)phenyl]thio}methyl)-N-hydroxypiperidine-4-carboxamide]	> 10000 nM	> 10000 nM	
CC#CCOc1ccc([S+]([O-])CC2(C(=O)NO)CCN(C(=O)OC(C)(C)C)CC2)cc1 (stereo not shown) [Example 32, tert-Butyl-4-({[4-(2-butynyloxy)phenyl]sulfinyl}methyl)-4-[(hydroxyamino)-carbonyl]-1-piperidinecarboxylate]	2750 nM	> 10000 nM	
